Measured values as given in patent US20240415914A1, “Water Dispersible Cannabinoid Compositions” (priority 2021, published 2024).
Where two headings read alike, the source gives them in different places.

How the values were obtained:
[1] = assay type: physicochemical; conditions: stored at room temperature (21-25° C.)
Experimental: At each time period, 0.05 g of powder was dissolved in 10 ml-15 of ethanol, diluted to fall within the analytical range, and injected into the LCMSMS for analysis.

[2] = Stability of cannabinoid and Vitamin E components of Beverage 2 (AB Red) stored at 8° C. and 21-25° C., LCMSMS over 570 days
Experimental: The LCMSMS was calibrated for 0-50 ng/ml cannabinoids with the same resin material used in the preparation of the concentrates. At each time period, 100 μml of beverage was diluted with 10 ml of methanol and injected into the LCMSMS for analysis.

**Q.** Which results are given for C=C(C)[C@@H]1CCC(C)=C[C@H]1c1c(O)cc(CCCCC)c(C(=O)O)c1O [CBDA, cannabidiolic acid]?
**A.** Stability in Powder Concentrate (content by LCMSMS) ([1]; day 0): 0.410 mg/g powder; Stability in Powder Concentrate (content by LCMSMS) ([1]; day 1): 0.412 mg/g powder; Stability in Powder Concentrate (content by LCMSMS) ([1]; day 2): 0.407 mg/g powder; Stability in Powder Concentrate (content by LCMSMS) ([1]; day 3): 0.406 mg/g powder; Stability in Powder Concentrate (content by LCMSMS) ([1]; day 5): 0.414 mg/g powder; Stability in Powder Concentrate (content by LCMSMS) ([1]; day 8): 0.415 mg/g powder; Stability in Powder Concentrate (content by LCMSMS) ([1]; day 9): 0.410 mg/g powder; Stability in Powder Concentrate (content by LCMSMS) ([1]; day 10): 0.418 mg/g powder; Stability in Powder Concentrate (content by LCMSMS) ([1]; day 11): 0.415 mg/g powder; Stability in Powder Concentrate (content by LCMSMS) ([1]; day 12): 0.396 mg/g powder; Stability in Powder Concentrate (content by LCMSMS) ([1]; day 15): 0.399 mg/g powder; Stability in Powder Concentrate (content by LCMSMS) ([1]; day 16): 0.427 mg/g powder; Stability in Powder Concentrate (content by LCMSMS) ([1]; day 17): 0.421 mg/g powder; Stability in Powder Concentrate (content by LCMSMS) ([1]; day 18): 0.418 mg/g powder; Stability in Powder Concentrate (content by LCMSMS) ([1]; day 19): 0.414 mg/g powder; Stability in Powder Concentrate (content by LCMSMS) ([1]; day 22): 0.419 mg/g powder; Stability in Powder Concentrate (content by LCMSMS) ([1]; day 23): 0.396 mg/g powder; Stability in Powder Concentrate (content by LCMSMS) ([1]; day 24): 0.403 mg/g powder; Stability in Powder Concentrate (content by LCMSMS) ([1]; day 25): 0.401 mg/g powder; Stability in Powder Concentrate (content by LCMSMS) ([1]; day 26): 0.397 mg/g powder; Stability in Powder Concentrate (content by LCMSMS) ([1]; day 29): 0.426 mg/g powder; Stability in Powder Concentrate (content by LCMSMS) ([1]; day 30): 0.405 mg/g powder; Stability in Powder Concentrate (content by LCMSMS) ([1]; day 60): 0.418 mg/g powder; Stability in Powder Concentrate (content by LCMSMS) ([1]; day 90): 0.413 mg/g powder; Stability in Powder Concentrate (content by LCMSMS) ([1]; day 120): 0.403 mg/g powder; Stability in Powder Concentrate (content by LCMSMS) ([1]; day 150): 0.412 mg/g powder; Stability in Powder Concentrate (content by LCMSMS) ([1]; day 180): 0.422 mg/g powder; Stability in Powder Concentrate (content by LCMSMS) ([1]; day 210): 0.427 mg/g powder; Stability in Powder Concentrate (content by LCMSMS) ([1]; day 240): 0.417 mg/g powder; Stability in Powder Concentrate (content by LCMSMS) ([1]; day 270): 0.424 mg/g powder; Stability in Powder Concentrate (content by LCMSMS) ([1]; day 300): 0.409 mg/g powder; Stability in Powder Concentrate (content by LCMSMS) ([1]; day 330): 0.424 mg/g powder; Stability in Powder Concentrate (content by LCMSMS) ([1]; day 360): 0.413 mg/g powder; Stability in Powder Concentrate (content by LCMSMS) ([1]; day 390): 0.407 mg/g powder; Stability in Powder Concentrate (content by LCMSMS) ([1]; day 420): 0.420 mg/g powder; Stability in Powder Concentrate (content by LCMSMS) ([1]; day 450): 0.398 mg/g powder; Stability in Powder Concentrate (content by LCMSMS) ([1]; day 480): 0.418 mg/g powder; Stability in Powder Concentrate (content by LCMSMS) ([1]; day 510): 0.411 mg/g powder; Stability in Powder Concentrate (content by LCMSMS) ([1]; day 540): 0.425 mg/g powder; Stability in Powder Concentrate (content by LCMSMS) ([1]; day 570): 0.408 mg/g powder; Stability of Cannabinoids in AB Red ([2]; 8° C., 0 days): 1.68 µg/mL; Stability of Cannabinoids in AB Red ([2]; 8° C., 1 days): 1.69 µg/mL; Stability of Cannabinoids in AB Red ([2]; 8° C., 2 days): 1.66 µg/mL; Stability of Cannabinoids in AB Red ([2]; 8° C., 3 days): 1.64 µg/mL; Stability of Cannabinoids in AB Red ([2]; 8° C., 5 days): 1.67 µg/mL; Stability of Cannabinoids in AB Red ([2]; 8° C., 8 days): 1.68 µg/mL; Stability of Cannabinoids in AB Red ([2]; 8° C., 9 days): 1.65 µg/mL; Stability of Cannabinoids in AB Red ([2]; 8° C., 10 days): 1.67 µg/mL; Stability of Cannabinoids in AB Red ([2]; 8° C., 11 days): 1.65 µg/mL; Stability of Cannabinoids in AB Red ([2]; 8° C., 12 days): 1.68 µg/mL; Stability of Cannabinoids in AB Red ([2]; 8° C., 15 days): 1.67 µg/mL; Stability of Cannabinoids in AB Red ([2]; 8° C., 16 days): 1.69 µg/mL; Stability of Cannabinoids in AB Red ([2]; 8° C., 17 days): 1.64 µg/mL; Stability of Cannabinoids in AB Red ([2]; 8° C., 18 days): 1.65 µg/mL; Stability of Cannabinoids in AB Red ([2]; 8° C., 19 days): 1.68 µg/mL; Stability of Cannabinoids in AB Red ([2]; 8° C., 22 days): 1.70 µg/mL; Stability of Cannabinoids in AB Red ([2]; 8° C., 23 days): 1.63 µg/mL; Stability of Cannabinoids in AB Red ([2]; 8° C., 24 days): 1.70 µg/mL; Stability of Cannabinoids in AB Red ([2]; 8° C., 25 days): 1.63 µg/mL; Stability of Cannabinoids in AB Red ([2]; 8° C., 26 days): 1.63 µg/mL; Stability of Cannabinoids in AB Red ([2]; 8° C., 29 days): 1.66 µg/mL; Stability of Cannabinoids in AB Red ([2]; 8° C., 30 days): 1.70 µg/mL; Stability of Cannabinoids in AB Red ([2]; 8° C., 60 days): 1.66 µg/mL; Stability of Cannabinoids in AB Red ([2]; 8° C., 90 days): 1.68 µg/mL; Stability of Cannabinoids in AB Red ([2]; 8° C., 120 days): 1.65 µg/mL; Stability of Cannabinoids in AB Red ([2]; 8° C., 150 days): 1.66 µg/mL; Stability of Cannabinoids in AB Red ([2]; 8° C., 180 days): 1.60 µg/mL; Stability of Cannabinoids in AB Red ([2]; 8° C., 210 days): 1.65 µg/mL; Stability of Cannabinoids in AB Red ([2]; 8° C., 240 days): 1.66 µg/mL; Stability of Cannabinoids in AB Red ([2]; 8° C., 270 days): 1.63 µg/mL; Stability of Cannabinoids in AB Red ([2]; 8° C., 300 days): 1.65 µg/mL; Stability of Cannabinoids in AB Red ([2]; 8° C., 330 days): 1.60 µg/mL; Stability of Cannabinoids in AB Red ([2]; 8° C., 390 days): 1.63 µg/mL; Stability of Cannabinoids in AB Red ([2]; 8° C., 420 days): 1.63 µg/mL; Stability of Cannabinoids in AB Red ([2]; 8° C., 450 days): 1.63 µg/mL; Stability of Cannabinoids in AB Red ([2]; 8° C., 480 days): 1.60 µg/mL; Stability of Cannabinoids in AB Red ([2]; 8° C., 510 days): 1.55 µg/mL; Stability of Cannabinoids in AB Red ([2]; 8° C., 540 days): 1.55 µg/mL; Stability of Cannabinoids in AB Red ([2]; 8° C., 570 days): 1.54 µg/mL; Stability of Cannabinoids in AB Red ([2]; 21-25° C., 0 days): 1.68 µg/mL; Stability of Cannabinoids in AB Red ([2]; 21-25° C., 1 days): 1.70 µg/mL; Stability of Cannabinoids in AB Red ([2]; 21-25° C., 2 days): 1.65 µg/mL; Stability of Cannabinoids in AB Red ([2]; 21-25° C., 3 days): 1.64 µg/mL; Stability of Cannabinoids in AB Red ([2]; 21-25° C., 5 days): 1.69 µg/mL; Stability of Cannabinoids in AB Red ([2]; 21-25° C., 8 days): 1.64 µg/mL; Stability of Cannabinoids in AB Red ([2]; 21-25° C., 9 days): 1.63 µg/mL; Stability of Cannabinoids in AB Red ([2]; 21-25° C., 10 days): 1.61 µg/mL; Stability of Cannabinoids in AB Red ([2]; 21-25° C., 11 days): 1.64 µg/mL; Stability of Cannabinoids in AB Red ([2]; 21-25° C., 12 days): 1.70 µg/mL; Stability of Cannabinoids in AB Red ([2]; 21-25° C., 15 days): 1.64 µg/mL; Stability of Cannabinoids in AB Red ([2]; 21-25° C., 16 days): 1.67 µg/mL; Stability of Cannabinoids in AB Red ([2]; 21-25° C., 17 days): 1.63 µg/mL; Stability of Cannabinoids in AB Red ([2]; 21-25° C., 18 days): 1.65 µg/mL; Stability of Cannabinoids in AB Red ([2]; 21-25° C., 19 days): 1.70 µg/mL; Stability of Cannabinoids in AB Red ([2]; 21-25° C., 22 days): 1.66 µg/mL; Stability of Cannabinoids in AB Red ([2]; 21-25° C., 23 days): 1.63 µg/mL; Stability of Cannabinoids in AB Red ([2]; 21-25° C., 24 days): 1.65 µg/mL; Stability of Cannabinoids in AB Red ([2]; 21-25° C., 25 days): 1.64 µg/mL; Stability of Cannabinoids in AB Red ([2]; 21-25° C., 26 days): 1.67 µg/mL; Stability of Cannabinoids in AB Red ([2]; 21-25° C., 29 days): 1.62 µg/mL; Stability of Cannabinoids in AB Red ([2]; 21-25° C., 30 days): 1.68 µg/mL; Stability of Cannabinoids in AB Red ([2]; 21-25° C., 60 days): 1.59 µg/mL; Stability of Cannabinoids in AB Red ([2]; 21-25° C., 90 days): 1.60 µg/mL; Stability of Cannabinoids in AB Red ([2]; 21-25° C., 120 days): 1.64 µg/mL; Stability of Cannabinoids in AB Red ([2]; 21-25° C., 150 days): 1.58 µg/mL; Stability of Cannabinoids in AB Red ([2]; 21-25° C., 180 days): 1.64 µg/mL; Stability of Cannabinoids in AB Red ([2]; 21-25° C., 210 days): 1.64 µg/mL; Stability of Cannabinoids in AB Red ([2]; 21-25° C., 240 days): 1.60 µg/mL; Stability of Cannabinoids in AB Red ([2]; 21-25° C., 270 days): 1.65 µg/mL; Stability of Cannabinoids in AB Red ([2]; 21-25° C., 300 days): 1.58 µg/mL; Stability of Cannabinoids in AB Red ([2]; 21-25° C., 330 days): 1.65 µg/mL; Stability of Cannabinoids in AB Red ([2]; 21-25° C., 390 days): 1.61 µg/mL; Stability of Cannabinoids in AB Red ([2]; 21-25° C., 420 days): 1.59 µg/mL; Stability of Cannabinoids in AB Red ([2]; 21-25° C., 450 days): 1.57 µg/mL; Stability of Cannabinoids in AB Red ([2]; 21-25° C., 480 days): 1.57 µg/mL; Stability of Cannabinoids in AB Red ([2]; 21-25° C., 510 days): 1.56 µg/mL; Stability of Cannabinoids in AB Red ([2]; 21-25° C., 540 days): 1.57 µg/mL; Stability of Cannabinoids in AB Red ([2]; 21-25° C., 570 days): 1.54 µg/mL
